In PubChem BioAssay AID700 (NMMLSC, 2007):
Calls of active or inactive are those of the source. The rule behind the calls is not given here.

Tested on: bacterial quorum sensing reporter inhibition
Experiment: blockers of quorum-sensing reporter signal in bacteria – dose response (AID 700)

| Compound | IC50 |
| --- | --- |
| COC(=O)c1ccc(CSc2nc3c(cnn3-c3ccc(Cl)cc3)c(=O)[nH]2)o1 | > 20 µM (inactive) |
| Cc1cccc2sc(NC(=O)CN(C)S(=O)(=O)c3ccc(Br)s3)nc12 | > 20 µM (inactive) |
| O=C(NC(=O)c1cccc(F)c1)OC[C@@H]1CCCN2CCCC[C@H]12 | > 20 µM (inactive) |
| CC1CN(c2nc3ccccc3nc2C(C#N)C(=O)OC2CCCCC2)CC(C)O1 (stereo not drawn) | > 20 µM (inactive) |
| Cc1ccc2cc(CN(CCN3CCCC3)C(=O)Nc3ccccc3)c(=O)[nH]c2c1C | > 20 µM (inactive) |
| Cc1ccc2[nH]c(=O)c(CN(CCCN(C)C)C(=O)Nc3cccc(Cl)c3)cc2c1 | > 20 µM (inactive) |
| O=C(c1ccc(Br)o1)N1CCN(c2ccc3nnc(-c4ccccc4)n3n2)CC1 | > 20 µM (inactive) |
| CCc1ccc2[nH]c(=O)c(CN(CCCN3CCOCC3)C(=O)Nc3ccc(F)cc3)cc2c1 | > 20 µM (inactive) |
| O=C(CSc1n[nH]c(-c2ccco2)n1)Nc1sc2c(c1C(=O)Nc1ccccc1)CCCC2 | 3.32 µM |
| CCc1ccc(N/C(SCc2cccc(F)c2)=C(/C#N)C(=O)NCc2ccco2)cc1 | > 20 µM (inactive) |
| Cc1ccc2[nH]c(=O)c(CN(CCCN(C)C)C(=O)Nc3ccc(Cl)cc3)cc2c1 | 9.03 µM |
| COc1cccc(-c2cc(C(F)(F)F)nc(NCc3ccco3)n2)c1 | > 20 µM (inactive) |
| CC[C@H]1OC(=O)C[C@@H](O)[C@H](C)[C@@H](O[C@@H]2O[C@H](C)C[C@H](N(C)C)[C@H]2O)[C@@H](CC=O)C[C@@H](C)C(=O)C=C[C@]2(C)O[C@H]2[C@@H]1C | 1.14 µM |
| CC(C)CC(NC(=O)c1ccco1)C(=O)Nc1ccc2c(c1)OCCO2 (stereo not drawn) | > 20 µM (inactive) |
| O=C(NCC(c1cccnc1)N1CCN(c2ccccc2F)CC1)c1cccc(Cl)c1 (stereo not drawn) | 1.97 µM |
| COc1ccc(O)c(C(=O)CC(=O)c2ccc(F)cc2)c1 | > 20 µM (inactive) |
| c1csc(CCNc2ncnc3sc4c(c23)CCC4)c1 | > 20 µM (inactive) |
| COCCn1nnnc1C(c1cc2cc(OC)ccc2[nH]c1=O)N1CCC(Cc2ccccc2)CC1 (stereo not drawn) | > 20 µM (inactive) |
| Cc1ccc(C)c2[nH]c(=O)c(CN(CCN3CCCC3)C(=O)Nc3cccc(Cl)c3)cc12 | 8.19 µM |
| O=C(O)CCc1cc(I)c(Oc2ccc(O)c(I)c2)c(I)c1 | 1.78 µM |
| CCCCc1oc2ccccc2c1C(=O)c1cc(I)c(OCCN(CC)CC)c(I)c1 | > 20 µM (inactive) |
| COc1ccc(N(CC(=O)Nc2nc3ccc(C)cc3s2)S(=O)(=O)c2c(C)nn(C)c2C)cc1 | > 20 µM (inactive) |
| O=C1CS/C(=N\C(=O)N2c3ccccc3Sc3ccccc32)N1 | 1.42 µM |
| CCCCC(=O)Nc1cc(C)c2c(=O)oc3ccccc3c2n1 | > 20 µM (inactive) |

| Compound | IC50 |
| --- | --- |
| CCn1c2ccccc2c2cc(NC(=O)CSc3nnc(C4CC4)n3Cc3ccco3)ccc21 | > 20 µM (inactive) |
| CCc1ccc2[nH]c(=O)c(CN(CCCN3CCOCC3)C(=O)Nc3ccc(Cl)cc3)cc2c1 | > 20 µM (inactive) |
| O=C(CCCCn1c(=O)[nH]c2ccccc2c1=O)N1CCN(c2cccc(C(F)(F)F)c2)CC1 | > 20 µM (inactive) |
| Oc1ccc(-c2nc3ncccn3c2Nc2ccc3c(c2)OCCO3)cc1 | > 20 µM (inactive) |
| COc1ccc(-c2nc(C(N)=O)c3[nH]c(=O)n(-c4cccc(Cl)c4)c3n2)cc1OC | > 20 µM (inactive) |
| CCOc1ccc(NC(=O)C2CCCN(S(=O)(=O)c3c(C)nn(C)c3C)C2)cc1 (stereo not drawn) | > 20 µM (inactive) |
| Cc1cccc(Nc2ccccc2C(=O)O)c1C | 1.02 µM |
| Cc1cc(NC(=O)CC(C)(C)C)nc2c1c(=O)oc1ccccc12 | > 20 µM (inactive) |
| CC(C)[C@@]1(NC(=O)[C@@H]2C[C@@H]3c4cccc5[nH]cc(c45)C[C@H]3N(C)C2)O[C@@]2(O)[C@@H]3CCCN3C(=O)[C@H](Cc3ccccc3)N2C1=O | > 20 µM (inactive) |
| COC(=O)c1[nH]nc2c1C(=O)N(C1CCCCC1)C2=O | 12.7 µM (inactive) |
| COc1ccc(OC)c2[nH]c(=O)c(CCNC(=O)C(C)C)cc12 | > 20 µM (inactive) |
| O=C(CN1C(=O)CC(c2ccco2)Sc2ccccc21)Nc1ccc2c(c1)OCCO2 (stereo not drawn) | > 20 µM (inactive) |
| CCOC(=O)C(C)(C)Sc1nc2c(cnn2-c2ccc(C)cc2)c(=O)[nH]1 | > 20 µM (inactive) |
| CCc1oc2ccccc2c1C(=O)c1cc(Br)c(O)c(Br)c1 | 0.74 µM |
| Cc1ccc(N2CC(C(=O)NC3=NCCS3)CC2=O)cc1 (stereo not drawn) | > 20 µM (inactive) |
| COc1ccc(NC(=O)c2c(SC)nsc2SC)cc1 | > 20 µM (inactive) |
| CCOC(=O)C1=C(C)NC(C)=C(C(=O)OC)C1c1cccc(Cl)c1Cl (stereo not drawn) | > 20 µM (inactive) |
| COc1ccc(-c2oc3ncn(CCN4CCOCC4)c(=N)c3c2-c2ccc(OC)cc2)cc1 | > 20 µM (inactive) |
| Cc1ccc(Cl)c(Nc2ccccc2C(=O)O)c1Cl | 3.13 µM |
| O=C(Nc1nc2c(s1)CCc1ccccc1-2)c1cccs1 | > 20 µM (inactive) |
| COC(=O)C1C(=O)C2=C(CC1C)NC(C)=C(C(=O)OC1CCCCC1)C2c1ccc(N(C)C)cc1 (stereo not drawn) | 9.7 µM |
| CC1CCN(S(=O)(=O)c2ccc3c(c2)oc(=O)n3CC(=O)NCc2ccc3c(c2)OCO3)CC1 | > 20 µM (inactive) |
| Cc1ccc(C)c2[nH]c(=O)c(CN(CCN3CCCC3)C(=O)Nc3ccc(F)cc3)cc12 | > 20 µM (inactive) |
| CCc1oc2ccccc2c1C(=O)c1ccc(O)cc1 | 3.28 µM |

| Compound | IC50 |
| --- | --- |
| Cc1c(Cl)cccc1Nc1ccccc1C(=O)O | 1.89 µM |
| CCOC(=O)Cn1c(=O)oc2cc(S(=O)(=O)Nc3ccc(N(CC)CC)cc3C)ccc21 | > 20 µM (inactive) |
| CCCn1c(=S)[nH]c2cc(C(=O)N3CCN(c4ccccc4OC)CC3)ccc2c1=O | > 20 µM (inactive) |
| Cn1c(=O)n(CCc2ccccc2)c(=O)c2c1nc1n2CCN1Cc1ccco1 | > 20 µM (inactive) |
| CC1CCCN(C(C(=O)Nc2ccc3c(c2)OCCO3)c2ccccc2)C1 (stereo not drawn) | > 20 µM (inactive) |
| CCCCOC(=O)Cn1c(=O)oc2ccc(C)cc21 | > 20 µM (inactive) |
| O=C(OCC(O)CO)c1ccccc1Nc1ccnc2cc(Cl)ccc12 (stereo not drawn) | > 20 µM (inactive) |
| Cn1cc(/C=N/n2cnc3sc4c(c3c2=O)CCCC4)c2ccccc21 | > 20 µM (inactive) |
| Cc1ccc(-c2nc(CS(=O)CC(=O)NCCC(C)C)c(C)o2)cc1 (stereo not drawn) | > 20 µM (inactive) |
| O=C(NCCN1CCN(c2ccccc2)CC1)c1cccn2c(=O)c3ccccc3nc12 | > 20 µM (inactive) |
| O=C(O)c1ccccc1Nc1cccc(C(F)(F)F)c1 | > 20 µM (inactive) |
| CCc1ccc2[nH]c(=O)c(CN(CCCN3CCOCC3)C(=O)Nc3cccc(Cl)c3)cc2c1 | > 20 µM (inactive) |
| COc1cc2[nH]c(=O)n(CCC(=O)N3CCN(c4cc(Cl)ccc4C)CC3)c(=O)c2cc1OC | > 20 µM (inactive) |
| Clc1ccc(OCc2nnc3n2N=C(c2ccc4c(c2)OCCO4)CS3)c(Cl)c1 | > 20 µM (inactive) |
| CCC(=O)O[C@@H]1CC(=O)O[C@H](C)CC=CC=C[C@@H](O)[C@H](C)C[C@H](CC=O)[C@H](O[C@H]2O[C@H](C)[C@@H](O[C@H]3C[C@@](C)(O)[C@@H](OC(=O)CC)[C@H](C)O3)[C@H](N(C)C)[C@H]2O)[C@H]1OC | 0.55 µM |
| Cn1cccc1Cc1nnc(SCC(=O)Nc2ccccc2)n1-c1ccc(F)cc1 | > 20 µM (inactive) |
| Cc1ccc(C)c(N2CCN(C(=O)CCCCn3c(=O)[nH]c4ccccc4c3=O)CC2)c1 | > 20 µM (inactive) |
| CCc1c(C)sc(NC(=O)c2cc(C)on2)c1C#N | > 20 µM (inactive) |
| Cc1nn(C(C)(C)C)c(OC(=O)C2CCCC2)c1S(=O)(=O)c1ccccc1 | > 20 µM (inactive) |
| Cc1cc(NC(=O)C2CCCC2)nc2c1c(=O)oc1ccccc12 | 18.4 µM (inactive) |
| CC1CCCCN1S(=O)(=O)c1ccc(C(=O)Nc2nnc(-c3cccs3)o2)cc1 (stereo not drawn) | > 20 µM (inactive) |
| Cc1nc2ccccn2c1/C(O)=C1\C(=O)C(=O)N(CCCN(C)C)C1c1ccc(F)cc1 (stereo not drawn) | > 20 µM (inactive) |
| Cc1cc(C)c2cc(CN(CCN3CCCC3)C(=O)Nc3ccc(F)cc3)c(=O)[nH]c2c1 | > 20 µM (inactive) |
| Cc1ccc(NC(=O)c2cc(C)on2)cc1 | > 20 µM (inactive) |

| Compound | IC50 |
| --- | --- |
| CCc1c(C)nc(SCC(=O)Nc2ccc(Br)cc2)[nH]c1=O | > 20 µM (inactive) |
| O=C(NCCCc1ccccc1)c1cnc2n(c1=O)CCS2 | > 20 µM (inactive) |
| Cc1ccsc1-c1nc(CSCC(=O)N2CCN(c3ccccc3)CC2)c(C)o1 | 12.4 µM (inactive) |
| Nc1c(C(O)(C(F)(F)F)C(F)(F)F)ccc2ccccc12 | > 20 µM (inactive) |
| CCOC(=O)N1CCC(NC(=O)Cn2nc(Cc3ccncc3)c3ccccc3c2=O)CC1 | 5.8 µM |
| O=C(CN1C(=O)CC(c2ccco2)Sc2ccccc21)NCc1ccc2c(c1)OCO2 (stereo not drawn) | 16.5 µM (inactive) |
| COc1cccc(Oc2cnc(N)nc2-c2ccc(OC)cc2O)c1 | > 20 µM (inactive) |
| CC(C)Cc1cc(C(=O)Nc2sc3c(c2C#N)CCCC3)no1 | > 20 µM (inactive) |
| CCc1ccc(S(=O)(=O)c2n[nH]n3c2nc(=O)c2ccccc23)cc1 | 1.46 µM |
| N#Cc1c(NC(=O)COC(=O)C2CC3C=CC2C3)oc(-c2ccccc2)c1-c1ccccc1 (stereo not drawn) | 0.68 µM |
| CC(C)CCOP(=O)(c1ccc(N(C)C)cc1)C(O)c1ccccc1F (stereo not drawn) | > 20 µM (inactive) |
| CC(C)N=c1cc2n(-c3ccc(Cl)cc3)c3ccccc3nc-2cc1Nc1ccc(Cl)cc1 | > 20 µM (inactive) |
| CC1CCCN(C(C(=O)Nc2ccc3c(c2)OCO3)c2ccccc2)C1 (stereo not drawn) | 1.25 µM |
| Fc1ccc(-c2nnc3ccc(N4CCc5ccccc5C4)nn23)cc1 | > 20 µM (inactive) |
| COc1ccc(-c2cnc(SCC(=O)Nc3ccc4c(c3)OCO4)n2Cc2ccco2)cc1 | 16.3 µM (inactive) |
| c1ccc(-c2ccc(C(c3ccccc3)n3ccnc3)cc2)cc1 (stereo not drawn) | > 20 µM (inactive) |
| COc1ccc(Nc2nc(-c3sc(N)nc3C)cs2)cc1 | > 20 µM (inactive) |
| CCN1CCCC1CN(Cc1cc2c(C)cc(C)cc2[nH]c1=O)C(=O)NC1CCCCC1 (stereo not drawn) | > 20 µM (inactive) |
| CC1(C)S[C@@H]2[C@H](NC(=O)[C@H](N)c3ccccc3)C(=O)N2[C@H]1C(=O)O | > 20 µM (inactive) |
| N#Cc1c(NC(NC(=O)c2ccco2)C(=O)c2ccccc2)sc2c1CCCC2 (stereo not drawn) | > 20 µM (inactive) |
| Cn1c(=O)oc2cc(S(=O)(=O)NCCN3CCN(c4ccccc4F)CC3)ccc21 | > 20 µM (inactive) |
